Assay results published in ChEMBL document CHEMBL6092213, “Rational Exploration of 2,4-Diaminopyrimidines as DHFR Inhibitors Active against Mycobacterium abscessus and Mycobacterium avium, Two Emerging Human Pathogens” (J Med Chem, 2024).
pIC50: −log10 of the molar value. ≈ marks a conversion by molar mass, not a printed value.

Assays:
[1] = Clearance in mouse; format: ADME, organism-based; conditions: in vivo
[2] = Volume of distribution in mouse; format: ADME, organism-based; conditions: in vivo
[3] = Solubility of compound in PBS at pH 7.4 incubated for 24 hrs by UPLC analysis; format: physicochemical; conditions: for solubility: buffer, pH 7.4, 24 h
[4] = Half-life in mouse; format: ADME, organism-based; conditions: in vivo
[5] = Metabolic stability in human hepatocytes assessed as intrinsic clearance at 0.5 uM measured upto 120 mins in presence of NADPH by UPLC-MS/MS analysis; format: ADME, cell-based, Hepatocyte; conditions: 2 h
[6] = system: Mycobacteroides abscessus; test: Antibacterial activity against Mycobacterium abscessus ATCC 19977 incubated for 2 days by resazurin microtiter assay; format: functional; conditions: ATCC 19977, 48 h, time 2 day
[7] = Metabolic stability in human liver microsomes assessed as intrinsic clearance at 0.5 uM measured upto 30 mins in presence of NADPH by UPLC-MS/MS analysis; format: ADME, Microsome; conditions: 0.5 h
[8] = Metabolic stability in mouse hepatocytes assessed as intrinsic clearance at 0.5 uM measured upto 120 mins in presence of NADPH by UPLC-MS/MS analysis; format: ADME, cell-based, Hepatocyte; conditions: 2 h
[9] = Inhibition of Mycobacterium avium DHFR using 7, 8 dihydrofolate as substrate incubated for 1 hr by plate reader assay
Dihydrofolate reductase = biological target: T1, Dihydrofolate reductase (Homo sapiens, UniProt P00374); test: Inhibition of human DHFR using 7, 8 dihydrofolate as substrate incubated for 1 hr by plate reader assay; format: toxicity
T1 sequence (P00374 whole entry): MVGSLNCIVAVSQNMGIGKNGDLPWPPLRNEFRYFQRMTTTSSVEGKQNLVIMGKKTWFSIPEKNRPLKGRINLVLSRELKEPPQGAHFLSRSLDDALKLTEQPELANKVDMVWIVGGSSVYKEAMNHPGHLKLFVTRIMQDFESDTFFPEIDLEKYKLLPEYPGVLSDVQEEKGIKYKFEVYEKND

[10] = Inhibition of Mycobacterium abscessus DHFR using 7, 8 dihydrofolate as substrate incubated for 1 hr by plate reader assay; design: species or system Mycobacteroides abscessus
[11] = Apparent permeability in MDCK-II cells incubated for 1 hr by LC-MS/MS method; format: ADME, cell-based, Canis lupus familiaris; conditions: dog
[12] = Tmax in BALB/c mouse at 3 mg/kg, po measured upto 24 hrs by UPLC/MS-MS analysis; format: ADME, organism-based; conditions: in vivo
[13] = Unbound fraction in mouse plasma; format: ADME, cell-free
[14] = Observed volume of distribution at steady state in BALB/c mouse at 1 mg/kg, iv measured upto 24 hrs by UPLC/MS-MS analysis; format: ADME, organism-based; conditions: in vivo
[15] = Cmax in BALB/c mouse at 3 mg/kg, po measured upto 24 hrs by UPLC/MS-MS analysis; format: ADME, organism-based; conditions: in vivo
HepG2 = test: Cytotoxicity against human HepG2 cells assessed as viable cells at 100 uM incubated for 72 hrs by resazurin dye based plate reader assay; format: toxicity, cell-based; conditions: hepg2, 72 h
[16] = Half-life in BALB/c mouse at 1 mg/kg, iv measured upto 24 hrs by UPLC/MS-MS analysis; format: ADME, organism-based; conditions: in vivo
[17] = AUCinfinity in BALB/c mouse at 1 mg/kg, iv measured upto 24 hrs by UPLC/MS-MS analysis; format: ADME, organism-based; conditions: in vivo
[18] = Lipophilicity, logP of compound; format: physicochemical; conditions: octanol/water
[19] = AUClast in BALB/c mouse at 1 mg/kg, iv measured upto 24 hrs by UPLC/MS-MS analysis; format: ADME, organism-based; conditions: in vivo
[20] = AUClast in BALB/c mouse at 3 mg/kg, po measured upto 24 hrs by UPLC/MS-MS analysis; format: ADME, organism-based; conditions: in vivo
[21] = Extrapolated AUC in BALB/c mouse at 1 mg/kg, iv measured upto 24 hrs by UPLC/MS-MS analysis; format: ADME, organism-based; conditions: in vivo
[22] = Observed clearance in BALB/c mouse at 1 mg/kg, iv measured upto 24 hrs by UPLC/MS-MS analysis; format: ADME, organism-based; conditions: in vivo
[23] = Oral bioavailability in BALB/c mouse at 3 mg/kg measured upto 24 hrs by UPLC/MS-MS analysis; format: ADME, organism-based; conditions: in vivo

## CCc1nc(N)nc(N)c1OCCCOc1ccccc1CCC(=O)O
[1]
  clearance: 2.62 L/h/kg
[2]
  Vd: 2.5 L/kg
[3]
  solubility: 233 µM (≈ 84 µg/mL)
[4]
  half-life: 39 min
[5]
  intrinsic clearance: < 0.66 mL/min/g
[6]
  MIC: 10.1 mg/L (≈ 28 µM)
[7]
  intrinsic clearance: < 0.4 mL/min/g
[8]
  CLH: < 0.76 mL/min/g
[9]
  pIC50: 8.37
Dihydrofolate reductase
  pIC50: 6.92
[10]
  pIC50: 9.10
[11]
  Papp: 30 nm/s

## COc1nc(N)nc(N)c1OCCCOc1ccccc1CCC(=O)O
[9]
  pIC50: < 5.30
Dihydrofolate reductase
  pIC50: < 5.30
[10]
  pIC50: < 5.30

## Nc1nc(N)c(OCCCOc2ccccc2CCC(=O)O)c(-c2ccncc2)n1
[6]
  MIC: 0.6 mg/L (≈ 1.47 µM)
[9]
  pIC50: 7.77
Dihydrofolate reductase
  pIC50: < 5.30
[10]
  pIC50: 7.11

## CCCCOc1nc(N)nc(N)c1OCCCOc1ccccc1CCC(=O)O
[9]
  pIC50: < 5.30
Dihydrofolate reductase
  pIC50: < 5.30
[10]
  pIC50: < 5.30

## CCCOc1nc(N)nc(N)c1OCCCOc1ccccc1CCC(=O)O
[9]
  pIC50: < 5.30
Dihydrofolate reductase
  pIC50: < 5.30
[10]
  pIC50: < 5.30

## COc1ccccc1-c1nc(N)nc(N)c1OCCCOc1ccccc1CCC(=O)O
[9]
  pIC50: 6.68
Dihydrofolate reductase
  pIC50: < 5.30
[10]
  pIC50: 6.68

## CCCCCc1nc(N)nc(N)c1OCCCOc1ccccc1CCC(=O)O
[6]
  MIC: 0.6 mg/L (≈ 1.49 µM)
[9]
  pIC50: 8.35
Dihydrofolate reductase
  pIC50: 6.37
[10]
  pIC50: 8.08

## NCCCc1nc(N)nc(N)c1OCCCOc1ccccc1CCC(=O)O
[6]
  MIC: 12.9 mg/L (≈ 33.1 µM)
[9]
  pIC50: 6.62
Dihydrofolate reductase
  pIC50: < 5.30
[10]
  pIC50: 7.35

## Nc1ncc(OCCCOc2ccccc2CCC(=O)O)c(N)n1
[9]
  pIC50: 6.66
Dihydrofolate reductase
  pIC50: 5.01
[10]
  pIC50: 6.00

## COc1cccc(-c2nc(N)nc(N)c2OCCCOc2ccccc2CCC(=O)O)c1
[6]
  MIC: 5.6 mg/L (≈ 12.8 µM)
[9]
  pIC50: 7.22
Dihydrofolate reductase
  pIC50: < 5.30
[10]
  pIC50: 7.89

## Nc1nc(N)c(OCCCOc2ccccc2CCC(=O)O)c(CCCCO)n1
[3]
  solubility: 227 µM (≈ 91.8 µg/mL)
[5]
  intrinsic clearance: < 0.66 mL/min/g
[6]
  MIC: 0.1 mg/L (≈ 0.247 µM)
[7]
  intrinsic clearance: < 0.4 mL/min/g
[8]
  CLH: < 0.76 mL/min/g
[9]
  pIC50: 8.30
Dihydrofolate reductase
  pIC50: 6.34
[10]
  pIC50: 8.31
[11]
  Papp: 8 nm/s

## Nc1nc(N)c(OCCCOc2ccccc2CCC(=O)O)c(C2CCNCC2)n1
[6]
  MIC: 6.2 mg/L (≈ 14.9 µM)
[9]
  pIC50: 7.20
Dihydrofolate reductase
  pIC50: < 5.30
[10]
  pIC50: 7.52

## CCCc1nc(N)nc(N)c1OCCCOc1ccccc1CCC(=O)O
[9]
  pIC50: 8.42
Dihydrofolate reductase
  pIC50: 8.14
[10]
  pIC50: 9.07

## Nc1nc(N)c(OCCCOc2ccccc2CCC(=O)O)c(-c2ccccc2)n1
[3]; PBS, pH 7.4
  solubility at 24 h: 52 µM (≈ 21.2 µg/mL)
[5]
  intrinsic clearance: < 0.66 mL/min/g
[6]
  MIC: 0.3 mg/L (≈ 0.734 µM)
[7]
  intrinsic clearance: 0.43 mL/min/g
[8]
  CLH: 2.2 mL/min/g
[9]
  pIC50: 8.15
Dihydrofolate reductase
  pIC50: < 5.30
[10]
  pIC50: 7.77
[11]
  Papp: 54 nm/s

## Nc1nc(N)c(OCCCOc2ccccc2CCC(=O)O)c(-c2ccccc2C(F)(F)F)n1
[6]
  MIC: 3.6 mg/L (≈ 7.56 µM)
[9]
  pIC50: 7.55
Dihydrofolate reductase
  pIC50: < 5.30
[10]
  pIC50: 7.38

## Nc1nc(N)c(OCCCOc2ccccc2CCC(=O)O)c(C2CCCCC2)n1
[12]
  Tmax: 30 min
[13]
  Fu: ~ 0.02
[3]
  solubility: 43 µM (≈ 17.8 µg/mL)
[14]
  Vdss: 0.9 L/kg
[15]
  Cmax: 0.279 µg/mL
[5]
  intrinsic clearance: < 0.66 mL/min/g
[6]
  MIC: 0.1 mg/L (≈ 0.241 µM)
HepG2
  Activity: > 60%
[16]
  t1/2: 30 min
[17]
  AUC: 42750 ng·min/mL
[18]
  logP: 3.6
[7]
  intrinsic clearance: 0.54 mL/min/g
[19]
  AUClast: 40507 ng·min/mL
[8]
  CLH: 2.2 mL/min/g
[9]
  pIC50: 8.20
[20]
  AUClast: 49232 ng·min/mL
[21]
  %AUCextra: 5%
[22]
  clearance: 1.38 L/h/kg
Dihydrofolate reductase
  pIC50: 5.68
[10]
  pIC50: 8.96
[11]
  Papp: 32 nm/s
[23]
  F: 41%

## Nc1nc(N)c(OCCCOc2ccccc2CCC(=O)O)c(-c2cccc(C(F)(F)F)c2)n1
[9]
  pIC50: 5.72
Dihydrofolate reductase
  pIC50: < 5.30
[10]
  pIC50: 6.49

## COc1ccc(-c2nc(N)nc(N)c2OCCCOc2ccccc2CCC(=O)O)cc1
[3]
  solubility: 67 µM (≈ 29.4 µg/mL)
[5]
  intrinsic clearance: < 0.66 mL/min/g
[6]
  MIC: 0.2 mg/L (≈ 0.456 µM)
[7]
  intrinsic clearance: < 0.4 mL/min/g
[8]
  CLH: 0.59 mL/min/g
[9]
  pIC50: 8.28
Dihydrofolate reductase
  pIC50: 6.15
[10]
  pIC50: 7.77
[11]
  Papp: 41 nm/s

## NCC[C@H](O)C(=O)N[C@@H]1C[C@H](N)[C@@H](O[C@H]2O[C@H](CN)[C@@H](O)[C@H](O)[C@H]2O)[C@H](O)[C@H]1O[C@H]1O[C@H](CO)[C@@H](O)[C@H](N)[C@H]1O [AMIKACIN]
[6]
  MIC: 1.7 mg/L (≈ 2.9 µM)
